These are literature values, as cited in patent publication US20090175824A1, “Peptides for the treatment of HCV infections” (priority 2007, published 2009).

The conditions of the data set: patients with hepatitis C.

Regarding `CC(C)(C)NC(=O)NC(C(=O)N1CC2C(C1C(=O)NC(CC1CCC1)C(=O)C(N)=O)C2(C)C)C(C)(C)C` (centres unmarked) [boceprevir, N-(4-amino-1-cyclobutyl-3,4-dioxobutan-2-yl)-3-(2-(3-tert-butylureido)-3,3-dimethylbutanoyl)-6,6-dimethyl-3-azabicyclo[3.1.0]hexane-2-carboxamide], the adverse events result is “infrequent and included headache, fever and myalgia”; the tolerability entry is given as “well-tolerated”.
